From publication PMC7180948, “New Insights into 4-Anilinoquinazolines as Inhibitors of Cardiac Troponin I–Interacting Kinase (TNNi3K)” (Molecules, 2020) come the findings set out here.

Broadly, the inhibition is the change of the read-out against control, counted positive when it falls.

Test in all cases: biochemical
Common to all, as to parameters: KINOMEscan competition binding panel (Eurofins DiscoverX), single concentration, percent inhibition
What all share (details): read-out: 15 at 1 µM % inhibition

Experiment [1] has as its target CAMK1D (Homo sapiens, UniProt Q8IU85). The method, then: (§1) KinomeScan® Assay on 7 and 15 was performed as previously described by EuroFins DiscoverX [24]. GSK114 (7) and 15 were submitted for a KINOMEscan® assay to explore the selectivity profile across >400 human kinases at a compound concentration of 1 µM. […] GSK114 (7) is a narrow-spectrum TNNi3K inhibitor but has some potent off-targets including GAK which has been previously reported for this chemotype. […] If utilized together this set of compounds could be useful to investigate TNNi3K biology.

In experiment [2] the target is T1, ABL1(F317L)-phosphorylated (Homo sapiens, UniProt P00519, F317L).
T1 construct: phosphorylated
The method, then: as §1

Experiment [3] addresses STK36 (Homo sapiens, UniProt Q9NRP7). The method, then:
as §1

For experiment [4], the target named is T2, MKK7 (Homo sapiens, UniProt O14733).
T2 construct: gene MAP2K7
The method, then:
as §1

For experiment [5], the target named is FLT3(K663Q) (Homo sapiens, UniProt P36888, K663Q). The method, then:
as §1

The target of experiment [6] is T3, PYK2 (Homo sapiens, UniProt Q14289).
T3 construct: gene PTK2B
The method, then:
as §1

The target in experiment [7] is T4, OSR1 (Homo sapiens, UniProt O95747).
T4 construct: gene OXSR1
The method, then: as §1

For experiment [8], the target named is CSK (Homo sapiens, UniProt P41240). The method, then: as §1
The target of experiment [9] is KIT (Homo sapiens, UniProt P10721). On the procedure:
as §1

In experiment [10] the target is EPHA7 (Homo sapiens, UniProt Q15375). On the procedure:
as §1

Experiment [11] concerns the target NEK4 (Homo sapiens, UniProt P51957). On the procedure:
as §1

Experiment [12] concerns the target EPHA6 (Homo sapiens, UniProt Q9UF33). The method, then: as §1
Experiment [13] has as its target MARK2 (Homo sapiens, UniProt Q7KZI7). On the procedure: as §1
Experiment [14] has as its target CDKL3 (Homo sapiens, UniProt Q8IVW4). The method, then:
as §1

Experiment [15] deals with T5, ERK4 (Homo sapiens, UniProt P31152).
T5 construct: gene MAPK4
The method, then: as §1

The target of experiment [16] is MAP4K5 (Homo sapiens, UniProt Q9Y4K4). On the procedure: as §1
Experiment [17] addresses CLK4 (Homo sapiens, UniProt Q9HAZ1). The method, then: as §1
For experiment [18], the target named is T6, PFTK1 (Homo sapiens, UniProt O94921).
T6 construct: gene CDK14
The method, then:
as §1

For experiment [19], the target named is PIK3CA(E545A) (Homo sapiens, UniProt P42336, E545A). The method, then:
as §1

The target in experiment [20] is T7, PCTK2 (Homo sapiens, UniProt Q00537).
T7 construct: gene CDK17
On the procedure:
as §1

Experiment [21] addresses INSR (Homo sapiens, UniProt P06213). The method, then:
as §1

Experiment [22] has as its target SLK (Homo sapiens, UniProt Q9H2G2). On the procedure: as §1
Experiment [23] concerns the target TLK1 (Homo sapiens, UniProt Q9UKI8). The method, then: as §1
Experiment [24] has as its target T8, ABL1(H396P)-phosphorylated (Homo sapiens, UniProt P00519, H396P).
T8 construct: phosphorylated
The method, then: as §1

T5 sequence (P31152 whole entry): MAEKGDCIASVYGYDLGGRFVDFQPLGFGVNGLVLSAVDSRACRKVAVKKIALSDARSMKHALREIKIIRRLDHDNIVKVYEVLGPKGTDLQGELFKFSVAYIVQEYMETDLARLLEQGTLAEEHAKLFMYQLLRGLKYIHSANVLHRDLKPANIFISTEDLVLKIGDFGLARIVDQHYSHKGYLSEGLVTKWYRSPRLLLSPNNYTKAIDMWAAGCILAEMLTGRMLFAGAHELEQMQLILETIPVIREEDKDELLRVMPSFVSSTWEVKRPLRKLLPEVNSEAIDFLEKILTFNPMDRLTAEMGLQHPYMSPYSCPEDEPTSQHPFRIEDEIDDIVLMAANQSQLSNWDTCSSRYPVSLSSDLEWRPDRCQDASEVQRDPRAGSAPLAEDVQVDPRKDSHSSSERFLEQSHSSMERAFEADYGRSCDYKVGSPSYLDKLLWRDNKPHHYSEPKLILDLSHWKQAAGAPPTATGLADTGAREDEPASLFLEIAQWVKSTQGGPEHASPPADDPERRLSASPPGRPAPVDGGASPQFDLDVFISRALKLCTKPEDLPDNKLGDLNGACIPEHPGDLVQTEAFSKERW
Chain of KIT (P10721 whole entry): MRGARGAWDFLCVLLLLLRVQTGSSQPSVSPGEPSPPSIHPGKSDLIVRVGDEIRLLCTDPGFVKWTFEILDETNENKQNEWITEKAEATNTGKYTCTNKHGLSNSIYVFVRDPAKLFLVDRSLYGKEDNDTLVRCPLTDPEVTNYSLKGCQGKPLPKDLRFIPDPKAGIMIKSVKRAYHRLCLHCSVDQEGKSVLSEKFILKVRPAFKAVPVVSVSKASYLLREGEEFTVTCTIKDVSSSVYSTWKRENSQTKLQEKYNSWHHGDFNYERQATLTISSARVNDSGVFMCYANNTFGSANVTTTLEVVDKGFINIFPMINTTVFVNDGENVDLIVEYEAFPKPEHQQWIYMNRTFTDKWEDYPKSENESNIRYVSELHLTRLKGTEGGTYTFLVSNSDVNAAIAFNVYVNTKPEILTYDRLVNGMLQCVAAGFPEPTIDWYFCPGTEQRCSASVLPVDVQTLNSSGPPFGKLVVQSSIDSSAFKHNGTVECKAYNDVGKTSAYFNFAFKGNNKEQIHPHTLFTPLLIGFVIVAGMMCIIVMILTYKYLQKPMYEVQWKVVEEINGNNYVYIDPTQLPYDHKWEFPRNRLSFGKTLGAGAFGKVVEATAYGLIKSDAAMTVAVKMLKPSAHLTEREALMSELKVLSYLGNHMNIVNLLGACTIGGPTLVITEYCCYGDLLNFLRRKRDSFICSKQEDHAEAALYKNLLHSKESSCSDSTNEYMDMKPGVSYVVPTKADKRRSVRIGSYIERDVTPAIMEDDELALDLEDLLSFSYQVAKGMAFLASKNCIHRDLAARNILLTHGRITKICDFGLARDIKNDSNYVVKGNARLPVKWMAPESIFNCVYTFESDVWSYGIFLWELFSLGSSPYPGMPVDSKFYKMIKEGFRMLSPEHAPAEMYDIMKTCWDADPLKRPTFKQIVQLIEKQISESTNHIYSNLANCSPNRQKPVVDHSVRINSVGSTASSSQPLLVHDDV
Chain of SLK (Q9H2G2 whole entry): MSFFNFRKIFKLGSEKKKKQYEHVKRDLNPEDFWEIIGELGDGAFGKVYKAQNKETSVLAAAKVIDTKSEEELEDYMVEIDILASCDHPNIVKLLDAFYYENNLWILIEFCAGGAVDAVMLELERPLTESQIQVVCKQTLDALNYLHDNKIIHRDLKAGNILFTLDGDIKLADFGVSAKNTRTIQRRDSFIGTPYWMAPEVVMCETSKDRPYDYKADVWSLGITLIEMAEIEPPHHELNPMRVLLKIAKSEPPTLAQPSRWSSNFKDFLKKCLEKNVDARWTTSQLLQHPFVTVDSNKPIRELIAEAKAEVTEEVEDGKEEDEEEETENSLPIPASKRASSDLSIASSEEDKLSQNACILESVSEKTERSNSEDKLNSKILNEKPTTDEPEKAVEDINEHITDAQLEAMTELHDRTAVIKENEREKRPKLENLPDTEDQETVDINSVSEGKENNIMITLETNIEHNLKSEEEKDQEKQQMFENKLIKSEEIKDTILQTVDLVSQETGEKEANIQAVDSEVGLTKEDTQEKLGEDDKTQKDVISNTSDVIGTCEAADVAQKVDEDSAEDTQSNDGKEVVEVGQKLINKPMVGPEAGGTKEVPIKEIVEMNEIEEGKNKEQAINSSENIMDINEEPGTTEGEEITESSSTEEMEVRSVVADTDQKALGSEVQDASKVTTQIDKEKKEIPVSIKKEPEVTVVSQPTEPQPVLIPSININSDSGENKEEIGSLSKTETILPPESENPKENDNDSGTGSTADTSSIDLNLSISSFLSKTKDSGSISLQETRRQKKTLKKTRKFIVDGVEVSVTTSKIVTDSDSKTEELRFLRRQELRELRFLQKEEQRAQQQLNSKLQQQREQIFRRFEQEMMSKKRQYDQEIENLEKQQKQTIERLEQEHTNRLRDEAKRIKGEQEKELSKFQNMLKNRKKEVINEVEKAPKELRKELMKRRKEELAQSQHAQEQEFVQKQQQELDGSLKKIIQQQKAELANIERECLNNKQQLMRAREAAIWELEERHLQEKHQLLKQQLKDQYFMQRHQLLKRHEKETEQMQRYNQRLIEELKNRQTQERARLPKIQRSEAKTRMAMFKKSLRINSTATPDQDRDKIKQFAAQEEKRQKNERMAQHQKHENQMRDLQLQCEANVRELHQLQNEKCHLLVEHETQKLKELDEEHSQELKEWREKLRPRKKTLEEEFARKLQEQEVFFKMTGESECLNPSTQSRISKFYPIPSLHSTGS
Chain of EPHA7 (Q15375 whole entry): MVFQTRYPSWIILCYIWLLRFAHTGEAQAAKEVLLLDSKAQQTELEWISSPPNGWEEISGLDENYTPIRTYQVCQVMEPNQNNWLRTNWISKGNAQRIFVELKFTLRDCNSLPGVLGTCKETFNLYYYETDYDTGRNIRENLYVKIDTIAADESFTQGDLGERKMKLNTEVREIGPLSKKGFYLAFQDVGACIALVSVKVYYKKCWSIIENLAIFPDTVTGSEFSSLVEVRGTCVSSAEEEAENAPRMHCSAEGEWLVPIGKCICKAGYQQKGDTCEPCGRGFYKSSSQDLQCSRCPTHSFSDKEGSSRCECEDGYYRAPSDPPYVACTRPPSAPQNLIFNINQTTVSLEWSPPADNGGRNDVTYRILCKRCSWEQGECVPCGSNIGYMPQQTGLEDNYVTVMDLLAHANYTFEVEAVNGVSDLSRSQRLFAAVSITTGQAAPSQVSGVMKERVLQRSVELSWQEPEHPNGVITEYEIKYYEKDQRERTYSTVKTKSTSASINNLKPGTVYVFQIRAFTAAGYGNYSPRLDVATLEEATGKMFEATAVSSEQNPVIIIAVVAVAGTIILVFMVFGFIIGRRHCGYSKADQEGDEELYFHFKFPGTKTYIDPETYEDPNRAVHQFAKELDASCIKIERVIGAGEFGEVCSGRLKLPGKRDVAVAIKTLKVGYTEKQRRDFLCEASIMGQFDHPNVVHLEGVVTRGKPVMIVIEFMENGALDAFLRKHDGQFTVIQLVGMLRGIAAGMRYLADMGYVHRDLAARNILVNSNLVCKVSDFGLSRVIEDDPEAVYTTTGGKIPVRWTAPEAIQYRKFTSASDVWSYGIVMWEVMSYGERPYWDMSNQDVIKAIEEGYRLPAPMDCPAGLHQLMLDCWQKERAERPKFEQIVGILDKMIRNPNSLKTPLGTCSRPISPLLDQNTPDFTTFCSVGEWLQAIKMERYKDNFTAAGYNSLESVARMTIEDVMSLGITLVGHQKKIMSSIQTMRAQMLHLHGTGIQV
Chain of STK36 (Q9NRP7 whole entry): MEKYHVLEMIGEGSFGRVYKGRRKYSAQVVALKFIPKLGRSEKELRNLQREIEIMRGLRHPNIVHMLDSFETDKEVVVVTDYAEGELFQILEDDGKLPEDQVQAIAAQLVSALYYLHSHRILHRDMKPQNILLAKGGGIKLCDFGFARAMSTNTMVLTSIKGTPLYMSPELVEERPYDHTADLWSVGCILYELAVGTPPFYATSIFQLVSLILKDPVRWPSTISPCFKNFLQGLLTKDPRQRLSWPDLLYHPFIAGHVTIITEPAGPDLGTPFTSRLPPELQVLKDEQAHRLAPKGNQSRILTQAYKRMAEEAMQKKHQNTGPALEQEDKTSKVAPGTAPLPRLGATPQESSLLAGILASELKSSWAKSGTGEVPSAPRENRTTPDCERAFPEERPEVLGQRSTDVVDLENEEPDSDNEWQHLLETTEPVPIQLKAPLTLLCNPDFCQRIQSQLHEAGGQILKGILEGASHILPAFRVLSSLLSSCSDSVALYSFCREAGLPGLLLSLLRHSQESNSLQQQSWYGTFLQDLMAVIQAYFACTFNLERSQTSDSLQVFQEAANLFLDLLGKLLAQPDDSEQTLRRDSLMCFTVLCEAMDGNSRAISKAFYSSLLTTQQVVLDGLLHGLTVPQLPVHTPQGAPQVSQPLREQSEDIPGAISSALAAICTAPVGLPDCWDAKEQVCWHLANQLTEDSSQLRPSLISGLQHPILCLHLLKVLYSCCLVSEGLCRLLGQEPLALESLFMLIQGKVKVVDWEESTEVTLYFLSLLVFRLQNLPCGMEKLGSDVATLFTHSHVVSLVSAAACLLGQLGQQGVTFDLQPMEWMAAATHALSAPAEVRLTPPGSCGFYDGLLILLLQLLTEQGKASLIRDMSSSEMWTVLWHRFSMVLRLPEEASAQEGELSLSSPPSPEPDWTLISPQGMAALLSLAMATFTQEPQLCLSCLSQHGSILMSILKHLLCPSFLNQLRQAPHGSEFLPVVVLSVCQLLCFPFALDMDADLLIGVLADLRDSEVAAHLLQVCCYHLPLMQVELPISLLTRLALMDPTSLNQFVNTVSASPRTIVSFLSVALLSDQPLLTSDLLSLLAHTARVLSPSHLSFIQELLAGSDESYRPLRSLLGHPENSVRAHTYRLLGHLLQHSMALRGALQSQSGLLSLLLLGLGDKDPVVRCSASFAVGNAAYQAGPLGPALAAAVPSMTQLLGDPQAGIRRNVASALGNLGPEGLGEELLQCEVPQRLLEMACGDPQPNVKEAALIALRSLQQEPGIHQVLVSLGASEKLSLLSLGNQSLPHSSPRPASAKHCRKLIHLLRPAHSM

On to `CNS(=O)(=O)c1ccc(N(C)C)c(Nc2nc(C)nc3cc(OC)c(OC)cc23)c1` [compound 15, 3-((6,7-dimethoxy-2-methylquinazolin-4-yl)amino)-4-(dimethylamino)-N-methylbenzenesulfonamide], for which the inhibition at 1 µM in experiment [1] was 0%; in [2], 0%; in [3], 0%; in experiment [4], 30%; in experiment [5] it was 10%; in experiment [6], 0%. In addition, the inhibition at 1 µM turned out to be 42% in experiment [7]; 2% in experiment [8]; 10% in [9]; 27% in experiment [10]; 13% in experiment [11]; 0% in experiment [12]. In addition, the inhibition at 1 µM stood at 0% in experiment [13]; 23% in experiment [14]; 0% in experiment [15]; 3% in [16]; 5% in [17]; 0% in experiment [18]. Moreover, the inhibition at 1 µM was determined as 1% in experiment [19]; 0% in experiment [20]; 11% in experiment [21]; 0% in experiment [22]; 9% in [23]; 0% in experiment [24].
